Results reported in patent publication US20070213291A1, “Therapeutically useful synthetic oligonucleotides” (priority 1999, published 2007).

How the values were obtained:
Assay type in all cases: cell-based
[1] = tested on: Jurkat human leukemia T cells; assay: Apoptosis by phosphatidylserine/annexin V-FITC flow cytometry; conditions: 50 μM sequence
Protocol: (§1) The redistribution of phosphatidylserine in the plasma membrane during apoptosis was measured by flow cytometry using FITC-conjugated annexin V (BD Pharmingen, San Diego, Calif.). NuMA release into the supernatant was determined using a commercial ELISA kit (Oncogen/Calbiochem, Cambridge, Mass.).
Jurkat human leukemia T cells were incubated with 50 μM of 3, 4, 5, 6 and 7 GT base sequences, a 5 base ACGT sequence, 6 base AG, GG, AGT and CGT sequences and a 7 base GG sequence. […]
Jurkat human leukemia T cells were incubated with GT-rich or AC-rich sequences derived from the murA gene of Mycobacterium phlei (GenBank: Accession Number X99776). Inhibition of proliferation was measured by the reduction of MTT as in Example 3, cell cycle arrest was detected by flow cytometry using propidium iodide as in Example 21 and apoptosis was evaluated by flow cytometry using annexin-V-FITC as in Example 23.

[2] = tested on: Jurkat human leukemia T cells; assay: NuMA release into supernatant (ELISA); conditions: for % NuMA released (treated vs untreated cells): 50 μM sequence
Protocol: as §1
Jurkat human leukemia T cells were incubated with 50 μM of 3, 4, 5, 6 and 7 GT base sequences, a 5 base ACGT sequence, 6 base AG, GG, AGT and CGT sequences and a 7 base GG sequence.
Jurkat human leukemia T cells (1×10^6/ml) were incubated with 6 and 27 GT base sequences (Table 32). NuMA was determined as in Example 23.
(§2) Jurkat human cell leukemia T cells were incubated for 24 h with 6 base GT SEQ ID NO:25, complementary 6 base AC SEQ ID NO:79, and 6 base GT SEQ ID NO:25+6 base AC SEQ ID NO:79. GT SEQ ID NO:25 and AC SEQ ID NO:79 were hybridized by mixing the sequences (1:1) and heating for 10 minutes at 65° C. As controls, GT SEQ ID NO:25 and AC SEQ ID NO:79 were heated for 10 minutes at 65° C. (Table 33). Apoptosis was evaluated as in Example 23.

[3] = tested on: Jurkat human leukemia T cells; assay: Inhibition of Jurkat human leukemia T cell proliferation (MTT reduction); conditions: 100 μg/ml sequence, 48 h, 2.5×10^5 cells/ml
Protocol: (§3) Cells were seeded in 6 (1 ml/well), 24 (0.5 ml/well) or 96 (0.1 ml/well) well flat-bottom microplates and were maintained at 37° C. in a 5% CO2 atmosphere. Unless stated otherwise, 2.5×10^5 cells/ml were incubated with 0 μg/ml (control) and 100 μg/ml (treated) of 2 to 45 base sequences containing A, C, G and T for 48 h.
MTT was measured at a wavelength of 570 nm using a multiplate spectrophotometer reader (ELX800, Bio-TEK Instruments Inc., Winooski, Vt.).
Jurkat human leukemia T cells are an atypical multi-drug resistant human suspension tumor cell model.

[4] = tested on: MCF-7 human breast cancer cells; assay: Inhibition of MCF-7 cell proliferation (MTT); conditions: 100 μg/ml, 48 h, 5×10^5 cells/ml
Protocol: as §3
Cell proliferation was measured using dimethylthiazol-diphenyl-tetrazolium (MTT) reduction (Mosman et al. J. Immunol. Methods 65:55, 1983). MTT was measured at a wavelength of 570 nm using a multiplate spectrophotometer reader (ELX800, Bio-TEK Instruments Inc., Winooski, Vt.).
MCF-7 human breast cancer cells are a caspase 3 negative, estrogen-dependent human solid tumor model. MCF-7 cells (5×10^5 cells/ml) were incubated with 3 and 6 base GT sequences (Table 7).

[5] = tested on: THP-1 human acute monocytic leukemia cells; assay: Cytokine production by THP-1 cells (ELISA); conditions: THP-1, 1×10^6 cells, 100 μg/ml, 48 h; p70 complex and free p40
Protocol: Unless stated otherwise, 1×10^6 cells were incubated with 100 μg/ml of each of the sequences tested for 48 h at 37° C. in 5% CO2. Production of cytokines IL-6, IL-10, IL-12, IL-1beta and TNF-alpha was determined in pg/ml in 100 μl of culture supernatant using the appropriate commercial ELISA (BioSource, Camarillo Calif.). The IL-12 ELISA measures both IL-12 p70 complex and free p40 subunit. Results are expressed as the “fold” (×) increase in cytokine production by treated cells compared to control cells.
THP-1 human acute monocytic leukemia cells were incubated with 2, 3, 6, 9, 12, 14, 15 and 18 base GT sequences and production of the cyotkine IL-6 was determined (Table 35).
THP-1 human acute monocytic leukemia cells were incubated with 6 base GT, AG, CG, GG, AGT and CGT sequences and production of the cytokines IL-12 and IL-6 was determined (Table 36).
THP-1 human acute monocytic leukemia cells were incubated with 6 base GT sequences, having either an oxygen (phosphodiester) or a sulfur (phosphorothioate) as the nonbridging atom on the phosphate groups and production of the cytokine IL-12 was determined (Table 39).
THP-1 human acute monocytic leukemia cells were incubated with 6 base GT SEQ ID NO:25, having either an oxygen (phosphodiester) or a sulfur (phosphorothioate) as the nonbridging atom on the phosphate groups and production of the cytokine IL-12 was determined (Table 40).

[6] = tested on: Jurkat human leukemia T cells; assay: Cell cycle stage in Jurkat cells (propidium iodide flow cytometry); conditions: 24 h
Protocol: Cell cycle stage was determined using a […]™ PLUS DNA commercial kit (Becton Dickinson). Briefly, nuclei from cells were obtained by dissolving the cell membrane in a nonionic detergent, eliminating the cell cytoskeleton and nuclear proteins with trypsin, digesting the cellular RNA with RNase and stabilizing the nuclear chromatin with spermine. Propidium iodide was added to the cell nuclei and their fluorescence was analyzed in a flow cytometer equipped with electronic doublet discrimination capability (FACSCalibur, Becton Dickinson, San Jose, Calif.). Accumulation of cells in G0/G1, early S (SE), mid S (SM), late S (SL) or G2/M phases of the cell cycle was analyzed using MODFIT LT software (Verity Software House Inc., Topsham, Mass.).
Exponentially growing Jurkat human leukemia T cells (Table 28) and MCF-7 human breast cancer cells (5×10^5 cells/ml) (Table 29) were incubated for 24 h with 2, 6, 15, 18, 27 and 45 base sequences containing A, C, G and T. The cells were collected and centrifuged and cell cycle stage was determined.
as §2, with “cells (1×10^6 cells/ml)” for “cells”, “conplementary” for “complementary”, “NO:79” for “NO:79,”, “oligonucleotides” for “sequences”, “30).” for “33). Apoptosis was evaluated as in Example 23.”

[7] = Jurkat 1×10^6 cells/ml, sequences heated 10 minutes at 65° C.

GG(GT)1 was tested, and the “% of cells in apoptosis (positive for PS/A-V staining)” value (shortened to “% of cells in apoptosis”) [1] was 21% and the “% NuMA released (treated vs untreated cells)” value ([2]; Jurkat) was 64%.

For GoGoGsToGoGo, the “% INHIBITION of Jurkat human leukemia T cell proliferation” value [3] was 17%, the “% INHIBITION of MCF-7 human breast cancer cell proliferation” value [4] was 12% and the “↑ IL-12 (fold increase treated vs control cells)” value [5] was 0.1 x.

“CC(AC)1CC (DNA CCACCC; unmodified DNA) [SEQ ID NO:79]” was tested, and the “% cells in phase: G0/G1” value [6, 7] was 36.0%, the “% cells in phase: G2/M” value [6, 7] was 30.5% and the “% cells in phase: SE” value [6, 7] was 10.4%. The “% cells in phase: SL” value [6, 7] was 9.7%, the “% cells in phase: SM” value [6, 7] was 13.4% and the “Arrest (cell cycle)” value [6, 7] was “had no effect on the cell cycle and None”. For the same substance, the “% NuMA released (untreated vs treated cells)” value ([2]; Jurkat, 24 h, sequences heated 10 minutes at 65° C.) was 9%.

With “GGGGGTGGGGGTGGGGGTGGGGGTGGG (unmodified DNA) [SEQ ID NO:3]” the “% INHIBITION of Jurkat human leukemia T cell proliferation” value [3] was 24%, the “% of cells in phase: G0/G1” value ([6]; Jurkat, 100 μg/ml) was 40.5% and the “% of cells in phase: G2/M” value ([6]; Jurkat, 100 μg/ml) was 23.6%. The “% of cells in phase: SE” value ([6]; Jurkat, 100 μg/ml) was 13.3%, the “% of cells in phase: SL” value ([6]; Jurkat, 100 μg/ml) was 9.7% and the “% of cells in phase: SM” value ([6]; Jurkat, 100 μg/ml) was 12.9%. For the same substance, the “Arrest (cell cycle)” value ([6]; Jurkat, 100 μg/ml) was “None” and the “% NUMA RELEASED” value ([2]; Jurkat 1×10^6/ml) was 139%.

With GTGG (unmodified DNA) [SEQ ID NO:52] the “% INHIBITION of Jurkat human leukemia T cell proliferation” value [3] was 52%, the “% of cells in apoptosis” value [1] was 24% and the “% NuMA released (treated vs untreated cells)” value ([2]; Jurkat) was 60%.

With GGTGG (unmodified DNA) [SEQ ID NO:60] the “% INHIBITION of Jurkat human leukemia T cell proliferation” value [3] was 50%, the “% of cells in apoptosis” value [1] was 25% and the “% NuMA released (treated vs untreated cells)” value ([2]; Jurkat) was 120%.

GoGoGsTsGoGo was tested, and the “% INHIBITION of Jurkat human leukemia T cell proliferation” value [3] was 13%, the “% INHIBITION of MCF-7 human breast cancer cell proliferation” value [4] was 43% and the “↑ IL-12 (fold increase treated vs control cells)” value [5] was 0.5x.

With “GG(GG)1GGG (DNA GGGTGGG; unmodified DNA)” the “% of cells in apoptosis” value [1] was 12% and the “% NuMA released (treated vs untreated cells)” value ([2]; Jurkat) was 26%.

For GsGsGoToGsGs, the “% INHIBITION of Jurkat human leukemia T cell proliferation” value [3] was −13%, the “% INHIBITION of MCF-7 human breast cancer cell proliferation” value [4] was −3% and the “↑ IL-12 (fold increase treated vs control cells)” value [5] was 0 x.
